Like-named read-outs stand apart in the source and are kept apart here. Values belong to the compound of their own block, whether it stands above or below them.
Experiments:
[1] = cited from earlier work
[2] = cited from earlier work; remark: listed apart in the source
[3] = Plasma concentration of zonarol after oral or intravenous administration in mice (HPLC-FI, non-compartmental analysis); type: in vivo; settings: for time within which plasma concentration remained over the LOQ: LOQ 11.1 ng/mL
Procedure: (§1) HPLC analysis was carried out on a Shimadzu-20A series instrument (Shimadzu, Japan) connected to a fluorescence detector (RF-10A xl, Shimadzu, Japan). The signals from the fluorescence system were transmitted to LC Solution software for the purposes of analyzing and calculating the peak areas. Chromatographic separation was carried out on an RPAQUEOUS-AR-5 (4.6 × 250 mm) column. The HPLC was operated with a gradient mobile phase system consisting of water containing 0.1% formic acid (phase A) and methanol (phase B) at a flow rate of 1 mL/min. The pump was programmed as follows: phase B was maintained at 40% for the first 5 min, increased from 40% to 80% within the next 25 min, maintained at 80% for the next 10 min, increased to 100% for 10 min, and then decreased back to 40% for 10 min (total gradient time: 60 min). A 50 μL sample was injected into the system with the auto-sampler and conditioned at 4 °C, and the column temperature was maintained at 30 °C.
Male ddY mice (8 weeks old, 40 ± 2 g) were purchased from SLC Inc. (Shizuoka, Japan) and were acclimated to laboratory conditions for 1 week before experiment. The mice were housed in an air-conditioned room at 23 ± 2 °C with 12 h/12 h light–dark illumination cycles at a constant humidity (55 ± 10%) with free access to food (MR stock, Nosan, Japan) and tap water. Exsanguination and autopsy were performed under anesthesia with an overdose of isoflurane (Mylan EPD Ltd., Canonsburg, PA, USA). All procedures were reviewed and approved (R3-9 and R4-2) in terms of animal welfare by the Animal Ethics Committee of Tokyo University of Marine Science and Technology.
The mice were fasted for 12 h before the oral administration of zonarol. Blood samples were collected from the mouse tails at 15, 30, 45, 60, 90, 120, 240, and 480 min after the oral administration of 100 mg/kg of zonarol (n = 5).
The mice were not fasted before the intravenous administration of zonarol but were fasted after the test started. Blood samples were collected from the mouse tails, via the caudal veins, at 5, 15, 30, 45, 60, 90, 120, and 240 min after the intravenous administration of 10 mg/kg of zonarol (n = 6).
Blood samples were immediately centrifuged at 9000 rpm for 5 min. After centrifugation, a 20 μL aliquot of plasma was mixed with 80 μL of MeCN for deproteinization. Then, the mixture was centrifuged at 9000 rpm for 5 min, and the supernatant was used for HPLC analysis.
Data were expressed as the mean ± standard deviation (SD) for the in vitro and the animal experiments. The number of the data is described for each experiment. The pharmacokinetic parameters were calculated with Phoenix Winnonlin software (version 8.1) while using a non-compartmental model. The abnormal data were eliminated after being analyzed via a Box-type drawing with SPSS software (SPSS Inc., Chicago, IL, USA).

[4] = test system: carrageenan-induced paw edema; assay: Carrageenan-induced paw edema in mice after oral bolus zonarol; type: in vivo; settings: estimated from current p.o. 100 mg/kg plasma data and earlier 62.5 mg/kg edema result (ref 16)
[5] = Stability of zonarol with mice plasma during HPLC analysis; type: in vitro ADME
Procedure: as §1
The stability of low, medium, and high concentrations of 20, 80, and 320 ng/mL of zonarol mixed with the plasma of mice was performed under different conditions, including storage at room temperature for 4 h, storage at 37 °C for 4 h, and storage at 4 °C for 12 h and subjection to three freeze–thaw cycles. Next, 20 μL aliquots of low, medium, and high concentration zonarol solutions ([…]) were added to polypropylene tubes with 80 μL of blank plasma. Then, 900 μL of MeCN was added to the mixture, after being incubated under the different conditions described above, for deproteinization. The final nominal concentrations of zonarol were 20, 80, and 320 ng/mL. After deproteinization, the mixtures were centrifuged at […] for 5 min, and the supernatants were used for HPLC analysis. The accuracy of the assay was determined by comparing the nominal concentrations with the corresponding calculated concentrations via linear regression. Every concentration of zonarol was measured three times.

[6] = test system: DSS-induced ulcerative colitis; set-up: method as in PMID 25409433; settings: mice, oral 10 mg/kg/day for 2 weeks; cited from earlier work
[7] = test system: carrageenan-induced paw edema; set-up: method as in PMID 25409433; settings: mice, oral bolus 62.5 mg/kg at −0.5 h; edema at 2 and 4 h after carrageenan; cited from earlier work
diet-induced NAFLD = test system: diet-induced NAFLD; set-up: method as in PMID 34684455; settings: mice, oral 10 mg/kg/day for 2 weeks; cited from earlier work
[8] = Tissue distribution of zonarol after intravenous administration in mice; type: in vivo; settings: for concentration at 30 min / concentration at 15 min: mouse, iv, 10 mg/kg; for concentration at 30 min: brain; for concentration at 15 min: 15 min after administration
Procedure: as §1
Blank tissue homogenates were prepared by collecting the liver, kidney, and brain from normal mice after anesthetization. Blank tissue homogenates were used to determine the specificity of zonarol. In the experimental mice, the livers, kidneys, and brains were collected at 15, 30, 60, 120 min after the intravenous administration, via the caudal veins, of 10 mg/kg of zonarol (n = 7). The tissue with added distilled water (mass/volume = 1:4) was homogenized.
Next, a 50 μL of tissue homogenate was mixed with 200 μL of MeCN for deproteinization. Then, the mixture was centrifuged at 9000 rpm for 5 min, and the supernatant was used for HPLC analysis.

[9] = male, ddY, mouse, plasma, po, p.o. 100 mg/kg, n = 5, mean ± SD
[10] = storage at 4 °C for 12 h, prepared 20 ng/mL
[11] = storage at 4 °C for 12 h, prepared 80 ng/mL
[12] = storage at 4 °C for 12 h, prepared 320 ng/mL
[13] = storage at 37 °C for 4 h, prepared 20 ng/mL
[14] = storage at 37 °C for 4 h, prepared 80 ng/mL
[15] = storage at 37 °C for 4 h, prepared 320 ng/mL
[16] = storage at RT for 4 h, prepared 20 ng/mL
[17] = storage at RT for 4 h, prepared 80 ng/mL
[18] = storage at RT for 4 h, prepared 320 ng/mL
[19] = three cycles of freeze-thaw, prepared 20 ng/mL
[20] = three cycles of freeze-thaw, prepared 80 ng/mL
[21] = three cycles of freeze-thaw, prepared 320 ng/mL

Compound: O=c1c(O)c(-c2ccc(O)c(O)c2)oc2cc(O)cc(O)c12 [quercetin]
absolute bioavailability ([1]; variability depended on gastric contents during ingestion): 16%
accumulation in the brain ([2]; 0.1%-quercetin-containing diet for 11 weeks): did not induce the accumulation

time within which plasma concentration remained over the LOQ ([3]; i.v. 10 mg/kg): ≤ 240 min
AUC(0-t) ([3]; male, ddY, mouse, plasma, iv, i.v. 10 mg/kg, 0 to 240 min, n = 6, mean ± SD, read-out: AUC (AUC0-240) (converted)): 608 ng·h/mL
concentration at 5 min ([3]; male, ddY, mouse, plasma, iv, i.v. 10 mg/kg, 5 min): 878 ± 371 ng/mL
bioavailability ([3]; male, ddY, mouse, plasma, oral, (p.o. AUC/p.o. dose)/(i.v. AUC/i.v. dose) × 100, p.o. 100 mg/kg, i.v. 10 mg/kg): 25%
AUC(0-t) ([3]; male, ddY, mouse, plasma, po, p.o. 100 mg/kg, 0 to 480 min, n = 5, mean ± SD, read-out: AUC (AUC0-480) (converted)): 1520 ng·h/mL
Cmax [3, 9]: 723 ± 75.9 ng/mL
Tmax [3, 9]: 1.25 h
time within which plasma concentration remained over the LOQ ([3]; p.o. 100 mg/kg): ≤ 480 min
accuracy of each group (plasma stability) ([5]; all storage conditions and concentrations of Table 2): 90.8–112.9%
Accuracy (detected/prepared × 100) [5, 10]: 104.9%
Zonarol detected in plasma [5, 10]: 21.0 ± 1.33 ng/mL
Accuracy (detected/prepared × 100) [5, 11]: 92.3%
Zonarol detected in plasma [5, 11]: 73.8 ± 1.98 ng/mL
Accuracy (detected/prepared × 100) [5, 12]: 104.4%
Zonarol detected in plasma [5, 12]: 334.2 ± 10.70 ng/mL
Accuracy (detected/prepared × 100) [5, 13]: 105.8%
Zonarol detected in plasma [5, 13]: 21.2 ± 0.33 ng/mL
Accuracy (detected/prepared × 100) [5, 14]: 90.8%
Zonarol detected in plasma [5, 14]: 72.6 ± 0.53 ng/mL
Accuracy (detected/prepared × 100) [5, 15]: 95.2%
Zonarol detected in plasma [5, 15]: 304.6 ± 6.57 ng/mL
Accuracy (detected/prepared × 100) [5, 16]: 112.9%
Zonarol detected in plasma [5, 16]: 22.6 ± 1.24 ng/mL
Accuracy (detected/prepared × 100) [5, 17]: 91.2%
Zonarol detected in plasma [5, 17]: 73.0 ± 1.72 ng/mL
Accuracy (detected/prepared × 100) [5, 18]: 97.2%
Zonarol detected in plasma [5, 18]: 311.1 ± 2.76 ng/mL
time zonarol remained stable in plasma ([5]; stored at 4 °C): at least 12 h
change of zonarol content in plasma ([5]; stored at RT or 37 °C for 4 h): did not change
Accuracy (detected/prepared × 100) [5, 19]: 107.9%
Zonarol detected in plasma [5, 19]: 21.6 ± 1.44 ng/mL
Accuracy (detected/prepared × 100) [5, 20]: 94.4%
Zonarol detected in plasma [5, 20]: 75.5 ± 2.38 ng/mL
Accuracy (detected/prepared × 100) [5, 21]: 101.7%
Zonarol detected in plasma [5, 21]: 325.5 ± 4.56 ng/mL
effect of three freeze–thaw cycles on quantification in plasma ([5]; three freeze–thaw cycles): no effect
concentration at 30 min ([8]; bolus i.v. 10 mg/kg BW, 30 min, read-out: maximal distribution of zonarol in the brain): 2520 ± 1330 ng/g
concentration at 30 min ([8]; i.v. 10 mg/kg, 30 min after administration, n = 7, mean ± SD, read-out: zonarol content in brain (peak)): 2530 ± 1330 ng/g
concentration at 15 min ([8]; kidney, i.v. 10 mg/kg, n = 7, mean ± SD, read-out: zonarol content in kidney (highest)): 1910 ± 1800 ng/g
concentration at 15 min ([8]; liver, i.v. 10 mg/kg, n = 7, mean ± SD, read-out: zonarol content in liver (highest)): 1320 ± 1040 ng/g
Compound: C=C1CC[C@@H]2C(C)(C)CCC[C@@]2(C)[C@@H]1Cc1cc(O)ccc1O [zonarol]
plasma zonarol required to induce suppressive effects on edema formations [4]: approximately 300 ng/mL
effect on DSS-induced ulcerative colitis [6]: suppressed
effect on carrageenan-induced paw edema [7]: significantly suppressed
effect on diet-induced NAFLD (diet-induced NAFLD): prevented
tissue/body weights (g/g) and visual observation of each tissue vs. mice without bolus treatment ([8]; i.v. 10 mg/kg bolus, data not shown): did not reflect any marked differences

Compound: fucoxanthin
bioavailability [1]: 0.06%
passage through the BBB ([2]; due to hydrophobic properties): pass through the BBB

From paper PMC10295794, “Pharmacokinetic Analysis of Zonarol, a Marine Algal Hydroquinone, in Mice Using HPLC with Fluorescence Detection” (Antibiotics, 2023)
